Test results as given in patent US8431706B2, “1,2,3,4-tetrahydroqinoline derivative useful for the treatment of diabetes” (Eli Lilly and Company, priority 2011, dated 2013).

Legend:
PPARγ = target: T1, PPARγ (Homo sapiens, UniProt P37231); assay: PPARγ reporter functional assay in CV1 cells; assay type: cell-based; settings: examined up to 10 μM; luciferase reporter; 24 hours
T1 sequence (P37231 1-505): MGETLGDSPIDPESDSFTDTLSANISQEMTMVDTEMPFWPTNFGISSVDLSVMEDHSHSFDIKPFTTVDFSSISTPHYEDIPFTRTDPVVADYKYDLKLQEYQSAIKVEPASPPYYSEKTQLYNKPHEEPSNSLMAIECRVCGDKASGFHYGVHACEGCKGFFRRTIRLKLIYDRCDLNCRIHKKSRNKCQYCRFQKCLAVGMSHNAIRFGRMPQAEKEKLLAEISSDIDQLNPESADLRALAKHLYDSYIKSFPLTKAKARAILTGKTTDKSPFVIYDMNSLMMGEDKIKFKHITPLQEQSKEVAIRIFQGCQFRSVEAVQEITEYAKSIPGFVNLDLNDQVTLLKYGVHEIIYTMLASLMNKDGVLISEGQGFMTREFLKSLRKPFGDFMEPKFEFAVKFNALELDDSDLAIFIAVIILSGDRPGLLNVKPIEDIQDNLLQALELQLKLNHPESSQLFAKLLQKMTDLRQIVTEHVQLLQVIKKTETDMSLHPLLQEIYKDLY
T1 sequence (P19793 1-462 partner): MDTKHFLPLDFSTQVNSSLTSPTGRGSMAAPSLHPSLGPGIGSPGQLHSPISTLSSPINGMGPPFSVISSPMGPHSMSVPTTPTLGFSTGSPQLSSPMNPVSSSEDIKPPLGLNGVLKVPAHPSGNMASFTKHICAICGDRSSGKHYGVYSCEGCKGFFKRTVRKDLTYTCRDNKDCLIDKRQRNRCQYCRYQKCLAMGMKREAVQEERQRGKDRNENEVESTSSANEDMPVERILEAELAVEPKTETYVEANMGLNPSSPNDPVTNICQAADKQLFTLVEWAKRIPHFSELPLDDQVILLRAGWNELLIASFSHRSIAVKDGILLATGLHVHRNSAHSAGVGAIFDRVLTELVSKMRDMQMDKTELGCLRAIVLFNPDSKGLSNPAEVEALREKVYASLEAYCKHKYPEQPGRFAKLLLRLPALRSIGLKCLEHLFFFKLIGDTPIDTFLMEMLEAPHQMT
Text: Gal4 PPARα, Gal4 PPARδ, and PPARγ reporter functional assays are also used to monitor the selectivity of the exemplified compound. CV1 cells, which are derived from the renal tissue of an African green monkey, are transfected with various receptor and reporter plasmids using Fugene. For the Gal4 PPARα and PPARδ assays, a reporter plasmid containing five tandem copies of the yeast transcription protein Gal4 response element, cloned upstream of a firefly luciferase gene driven by the major late promoter of adenovirus, is transfected together with a Simian Virus 40 (SV40) driven plasmid constitutively expressing a hybrid protein containing the Gal4 DNA binding domain (DBD), and either the PPARα or PPARδ ligand binding. For the PPARγ assay, plasmids encoding PPARγ and RXRα, both driven by a cytomegalovirus (CMV) promoter are transfected together with a plasmid containing luciferase reporter cDNA driven by the TK promoter and a receptor response element (2×PPRE). Cells are transfected in T225 cm^2 cell culture flasks in DMEM media with 5% charcoal-stripped FBS. […] After 24 hours incubation with the compound, cells are lysed and luciferase activity is determined as a measure of receptor activation by luminescence. […] The maximum percent stimulation is determined versus maximum stimulation obtained with 10 μM of an appropriate PPAR agonist reference compound. […]

Male Balb/c mice = assay: Intraperitoneal Glucose Tolerance Test (IPGTT); assay type: in vivo, mouse
Method: To examine the ability of exemplified the compound to activate GPR40 in-vivo resulting in anti-diabetic efficacy, i.e. reduction in plasma glucose levels, a 4-day intraperitoneal glucose tolerance test (ipGTT) study is completed, and the data is shown for the compound tested below.
Male Balb/c (Albino mice) mice (8-9 weeks of age) are single housed, and fed with normal rodent chow diet and water ad libitum. Animals are weighed; randomized by body weight; and their daily body weights are recorded Animals are dosed once per day orally for three days using a formulation carrying methylcellulose and tween-80. On the night before Day 4, animals are fasted overnight. On the morning of Day 4, animals are dosed orally with compound or vehicle alone 60 minutes prior to the glucose tolerance test (glucose 2 g/kg, i.p.). Blood glucose levels are determined from tail bleeds taken at 0, 3, 7, 15, 30, and 60 min after glucose challenge. The blood glucose excursion profile from t=0 to t=60 min is used to integrate an area under the curve (AUC) for each treatment. Percent lowering in glucose is calculated from the AUC data of the compound with respect to the AUC of vehicle group. The test compound is orally administered at 0.3, 1.0, 3.0, 10, or 30 mg/kg, and a positive control (3-[4-(2-methyl-benzyloxy)-phenyl]-hex-4-ynoic acid, see WO2005086661.) is administered at 10 mg/kg. […] Glucose levels are lowered at the 15, 30, and 60 minute time points for the positive control. The ED50 for this compound based on AUCs for glucose lowering is 1.0 mg/kg.

[1] = test system: mouse insulinoma cell line Min6; assay: Glucose Dependent Insulin Secretion (GDIS) assay in Min6 cells; assay type: cell-based
Method: Because activation of GPR40 is known to result in insulin secretion, which is dependent on high glucose concentrations, two separate assay systems (an insulinoma cell line and primary rodent islets) are developed to further characterize compounds that are known to increase intracellular calcium in the GPR40 primary assay discussed above.
GDIS assays are performed using the mouse insulinoma cell line Min6. […] On the day of the experiment, the cells are washed twice with 200 μl of pre-warmed Krebs-ringer buffer without glucose. Addition of 200 μL of pre-warmed Krebs-ringer buffer containing 2.5 mM glucose is used to starve the cells followed by the addition of compounds in the presence of a high concentration of glucose (25 mM). The plate is incubated at 37° C. for 2 hours. At the end of the 2 h incubation, the supernatant is gently transferred into a Millipore filter plate and spun at 200 g (gravitational force) for 3 minutes. Insulin is assayed using a Mercodia Insulin estimation kit.

human GPR40 = human GPR40 (Homo sapiens, UniProt O14842); settings: maximal response compared to the natural ligand, linoleic acid
human GPR40, sequence (O14842 whole entry): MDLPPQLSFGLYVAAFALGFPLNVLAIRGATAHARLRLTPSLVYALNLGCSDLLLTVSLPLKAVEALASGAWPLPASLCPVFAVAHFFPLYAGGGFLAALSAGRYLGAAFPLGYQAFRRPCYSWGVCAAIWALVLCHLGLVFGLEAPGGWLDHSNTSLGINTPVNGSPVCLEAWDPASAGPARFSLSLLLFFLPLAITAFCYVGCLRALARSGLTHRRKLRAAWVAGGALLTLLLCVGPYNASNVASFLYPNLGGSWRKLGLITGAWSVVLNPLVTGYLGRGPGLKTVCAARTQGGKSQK

functional activation of PPARγ (PPARγ): No functional activation
Percent efficacy (human GPR40): 84+/−24%
Compound: CC#C[C@@H](CC(=O)O)c1ccc(OCc2ccc(CN3CCCc4cccc(OC)c43)s2)cc1 [Example 1, (3S)-3-[4-[[5-[(8-Methoxy-3,4-dihydro-2H-quinolin-1-yl)methyl]-2-thienyl]methoxy]phenyl]hex-4-ynoic acid]
Glucose levels compared to vehicle control, 30 and 60 minute time points (Male Balb/c mice; 1.0, 3.0, 10 and 30 mg/kg oral doses): significantly lowered
Glucose levels compared to vehicle control, 15 minute time point (Male Balb/c mice; 3, 10 and 30 mg/kg oral doses): significantly lowered
ED50 (Male Balb/c mice; Mus musculus, oral, once per day, 4 days, glucose 2 g/kg i.p., AUC t=0 to 60 min, read-out: ED50 based on AUCs for glucose lowering): 1 mg/kg
increase in insulin secretion ([1]; 1.0 μM plus 25 mM glucose, fold over 25 mM glucose, 2 h, P<0.01): 2.68 fold
insulin secretion, dose response ([1]; 0.01, 0.1, 1.0 and 10.0 μM plus 25 mM glucose): dose dependent increase in insulin secretion
